Eight molecules from PubChem BioAssay (NCI) can be followed below.

Common to all, as to test: NCI anticancer screen, dose series, 48 h
Experiment [1] concerns HCT-116 colon.
In experiment [2] the test system is UO-31 renal.
In experiment [3] the test system is SF-539 CNS.
In experiment [4] the test system is LOX IMVI melanoma.
Experiment [5] deals with MOLT-4 leukemia.
Experiment [6] has as its system UACC-62 melanoma.
The subject of experiment [7] is A498 renal.
The subject of experiment [8] is EKVX NSCLC.
For experiment [9], the system named is SR leukemia.
The test system of experiment [10] is KM12 colon.

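48-hour exposure; five concentrations; linearly interpolated endpoints. GI50 marks 50% less growth. At the TGI there is no net growth.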

Take `COc1ccc(C(=O)Nc2ncc(Cc3cccc(Cl)c3)s2)cc1OC`: the GI50 was 0.0769 µM in experiment [1]; 0.953 µM in experiment [2]; 0.312 µM in experiment [3]; 0.0197 µM in experiment [4]; 0.374 µM in experiment [5]; 0.0173 µM in experiment [6]. The GI50 was 0.211 µM in experiment [7], 0.693 µM in experiment [8], 0.164 µM in experiment [9] and 0.0547 µM in experiment [10]. In addition, the TGI in experiment [1] is more than 100 µM; in experiment [2] it was more than 100 µM; in experiment [3] it was 2.5 µM; in [4], more than 100 µM; in experiment [5], more than 100 µM; in experiment [6], more than 100 µM. The TGI is 1.89 µM in experiment [7], more than 100 µM in experiment [8], more than 100 µM in experiment [9] and more than 100 µM in [10].

Consider `CC1(C)N=C(N)N=C(N)N1c1ccc(CCCCc2ccccc2)c(Cl)c1`, for which the GI50 in experiment [1] is less than 0.01 µM; in experiment [2] it was 4.89 µM; in experiment [3] it was 0.121 µM; in experiment [4], 0.0131 µM; in experiment [5], 0.095 µM; in experiment [6] it was 0.0505 µM. Further, the GI50 was 0.746 µM in experiment [7], 0.294 µM in [8], 0.0259 µM in experiment [9] and 0.059 µM in [10]. Also, the TGI in [1] is 1.61 µM; in experiment [2] it was 25.6 µM; in [3], 5.14 µM; in experiment [4] it was 1.52 µM; in [5], 11.3 µM; in [6], 2.67 µM. In addition, the TGI in [7] was 14.5 µM; in experiment [8], 25.1 µM; in experiment [9], 5.81 µM; in experiment [10], 1.42 µM.

With `C=C(C)[C@@H]1CC[C@]2(COCCC#N)CC[C@]3(C)[C@H](CC[C@@H]4[C@@](C)(CCCNCCC#N)[C@H](C(=C)C)CC[C@]43C)[C@@H]12`, the GI50 is 7.25 µM in experiment [1]; 10.7 µM in [2]; 9.78 µM in [3]; 8.47 µM in [4]; 7.72 µM in experiment [5]; 8.81 µM in experiment [6]. The GI50 in [7] was more than 50 µM; in experiment [8] it was 46.9 µM; in [9], 8.48 µM; in experiment [10], 15.6 µM. In addition, the TGI was 13.8 µM in experiment [1]; more than 50 µM in experiment [2]; 20.4 µM in experiment [3]; 16.7 µM in experiment [4]; 25 µM in [5]; 23.1 µM in experiment [6]. Also, the TGI was more than 50 µM in [7], more than 50 µM in experiment [8], 42.3 µM in experiment [9] and more than 50 µM in experiment [10].

Take `COc1c(O)c(OC)c2oc(-c3ccc(O)c(O)c3)c(OC)c(=O)c2c1O`: the TGI in experiment [1] is more than 100 µM; in experiment [2], 89.8 µM; in experiment [3], more than 100 µM; in experiment [4], 95.9 µM; in experiment [5], more than 100 µM; in experiment [6], 47.8 µM. Further, the TGI in experiment [7] is more than 100 µM; in [8] it was 94 µM; in [9] it was more than 100 µM; in experiment [10], more than 100 µM.

On to `Cc1ccc(NC(=O)c2ccc(CN3CCN(C)CC3)cc2)cc1Nc1nccc(-c2cccnc2)n1`, for which the GI50 was 13.2 µM in [1]; 22.3 µM in experiment [2]; 8.06 µM in [3]; 13.1 µM in [4]; 5.11 µM in experiment [5]; 19.2 µM in [6]. Besides, the GI50 was 20.6 µM in experiment [7], 26.6 µM in [8], 4.72 µM in experiment [9] and 18.8 µM in experiment [10]. Also, the TGI in experiment [1] turned out to be 42.6 µM; in [2], 53.8 µM; in experiment [3], 22.4 µM; in experiment [4], 34.8 µM; in experiment [5], 41.4 µM; in experiment [6], 40.5 µM. In addition, the TGI in experiment [7] is 39.2 µM; in experiment [8], 92.1 µM; in experiment [9], more than 51.3 µM; in [10], 41.3 µM.

With `Cc1cc(Nc2ccc(OCc3ccccc3)cc2)nc2cc(O)ccc12`, the GI50 in experiment [1] is 4 µM; in experiment [2] it was 2.04 µM; in experiment [3], 2.08 µM; in experiment [4], 2.47 µM; in experiment [5], 3.37 µM; in experiment [6], 2.96 µM. Also, the GI50 was 13 µM in experiment [7], 12.3 µM in [8], 3.26 µM in experiment [9] and 3.1 µM in [10]. For the same molecule, the TGI in experiment [1] came out at 14.6 µM; in experiment [2], 6.58 µM; in experiment [3], 4.93 µM; in experiment [4], 6.47 µM; in experiment [5] it was 17.4 µM; in experiment [6], 10.7 µM. Further, the TGI in experiment [7] turned out to be 27 µM; in [8], 27.2 µM; in experiment [9], 13.8 µM; in [10] it was 13.3 µM.

Regarding `CC(C)(C)N1CCC1CN` (stereo not given), the GI50 in experiment [1], in [2], in [3], in experiment [4], in [5] and in experiment [6] was more than 100 µM in each case. The GI50 in experiment [7], in [8], in [9] and in experiment [10] was more than 100 µM in each case. Also, the TGI in experiment [1], in experiment [2], in experiment [3], in experiment [4], in [5] and in experiment [6] was more than 100 µM each time. In addition, the TGI in [7], in [8], in experiment [9] and in experiment [10] was more than 100 µM in each case.

In the case of `CC1=Nc2ccccc2NC(c2ccoc2)C1` (stereo not given), the TGI in experiment [1], in experiment [2], in [3], in experiment [4], in experiment [5] and in experiment [6] was more than 100 µM each time. The TGI in experiment [7], in experiment [8], in [9] and in experiment [10] was more than 100 µM in each case.
